Results as given in publication PMC12136037, “Type II kinase inhibitors that target Parkinson’s disease–associated LRRK2” (Science Advances, 2025).

Columns and labels:
Assay in all cases: 33PanQinase kinome-wide selectivity profile (Reaction Biology)
Assay type in all cases: biochemical
350 wild-type kinases [1] = target: T1, 350 wild-type kinases (Homo sapiens, UniProt P36894); settings: kinase BMPR1A, ATP 3 µM, singlicate
T1 construct: purchased Reaction Biology (assay service)
Description: (§1) Compound RN341 was tested at two concentrations of 1 and 10 μM against a panel of 350 wild-type kinases in the ^33PanQinase assay. The assay was performed by Reaction Biology (www.reactionbiology.com/services/kinase-assays/kinase-panel-screening/).

350 wild-type kinases [2] = target: T2, 350 wild-type kinases (Homo sapiens, UniProt Q00535); settings: singlicate; for Residual activity (% of control), CDK5/p25NCK: kinase CDK5/p25NCK, ATP 0,3 µM; for Residual activity (% of control), CDK5/p35NCK: kinase CDK5/p35NCK, ATP 0,1 µM
T2 construct: purchased Reaction Biology (assay service)
T2 sequence (Q00535 whole entry): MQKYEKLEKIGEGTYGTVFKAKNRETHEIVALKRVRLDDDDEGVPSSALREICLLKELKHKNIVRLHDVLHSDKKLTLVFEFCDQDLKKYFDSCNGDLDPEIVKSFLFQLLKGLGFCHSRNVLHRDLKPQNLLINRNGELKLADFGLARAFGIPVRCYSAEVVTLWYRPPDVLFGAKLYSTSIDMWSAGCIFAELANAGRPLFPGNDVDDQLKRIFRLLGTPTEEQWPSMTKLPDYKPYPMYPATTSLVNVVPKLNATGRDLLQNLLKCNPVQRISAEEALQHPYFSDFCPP
Description: as §1

350 wild-type kinases [3] = target: T3, 350 wild-type kinases (Homo sapiens, UniProt Q9NYV4); settings: kinase CDK12/CycK, ATP 0,3 µM, singlicate
T3 construct: purchased Reaction Biology (assay service)
Description: as §1

350 wild-type kinases [4] = target: T4, 350 wild-type kinases (Homo sapiens, UniProt P27037); settings: kinase ACVR2A, ATP 3 µM, singlicate
T4 construct: purchased Reaction Biology (assay service)
Description: as §1

350 wild-type kinases [5] = target: T5, 350 wild-type kinases (Homo sapiens, UniProt O60285); settings: kinase ARK5, ATP 3 µM, singlicate
T5 construct: purchased Reaction Biology (assay service)
Description: as §1

350 wild-type kinases [6] = target: T6, 350 wild-type kinases (Homo sapiens, UniProt Q07912); settings: kinase ACK1, ATP 1 µM, singlicate
T6 construct: purchased Reaction Biology (assay service)
Description: as §1

350 wild-type kinases [7] = target: T7, 350 wild-type kinases (Homo sapiens, UniProt P68400); settings: kinase CK2alpha1, ATP 0,1 µM, singlicate
T7 construct: purchased Reaction Biology (assay service)
Description: as §1

350 wild-type kinases [8] = target: T8, 350 wild-type kinases (Homo sapiens, UniProt Q13555); settings: kinase CAMK2G, ATP 1 µM, singlicate
T8 construct: purchased Reaction Biology (assay service)
Description: as §1

350 wild-type kinases [9] = target: T9, 350 wild-type kinases (Homo sapiens, UniProt Q9BWU1); settings: kinase CDK19/CycC, ATP 3 µM, singlicate
T9 construct: purchased Reaction Biology (assay service)
Description: as §1

350 wild-type kinases [10] = target: T10, 350 wild-type kinases (Homo sapiens, UniProt Q96GD4); settings: kinase AuroraB, ATP 10 µM, singlicate
T10 construct: purchased Reaction Biology (assay service)
Description: as §1

350 wild-type kinases [11] = target: T11, 350 wild-type kinases (Homo sapiens, UniProt Q16832); settings: kinase DDR2, ATP 0,1 µM, singlicate
T11 construct: purchased Reaction Biology (assay service)
Description: as §1

350 wild-type kinases [12] = target: T12, 350 wild-type kinases (Homo sapiens, UniProt Q13705); settings: kinase ACVR2B, ATP 1 µM, singlicate
T12 construct: purchased Reaction Biology (assay service)
T12 sequence (Q13705 19-512): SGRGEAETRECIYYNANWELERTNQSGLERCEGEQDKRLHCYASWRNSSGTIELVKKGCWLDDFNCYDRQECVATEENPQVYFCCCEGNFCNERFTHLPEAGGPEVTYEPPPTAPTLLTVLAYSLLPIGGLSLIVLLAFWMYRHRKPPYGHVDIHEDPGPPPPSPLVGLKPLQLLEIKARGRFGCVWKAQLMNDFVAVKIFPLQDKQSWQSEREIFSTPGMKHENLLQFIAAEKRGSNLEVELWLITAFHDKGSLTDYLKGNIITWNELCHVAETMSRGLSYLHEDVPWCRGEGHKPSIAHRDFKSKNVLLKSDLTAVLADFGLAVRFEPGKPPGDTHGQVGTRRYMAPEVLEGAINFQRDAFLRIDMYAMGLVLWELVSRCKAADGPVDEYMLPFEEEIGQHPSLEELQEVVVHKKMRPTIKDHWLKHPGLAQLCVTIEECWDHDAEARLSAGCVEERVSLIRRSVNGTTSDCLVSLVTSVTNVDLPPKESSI
Description: as §1

350 wild-type kinases [13] = target: T13, 350 wild-type kinases (Homo sapiens, UniProt O96017); settings: kinase CHK2, ATP 1 µM, singlicate
T13 construct: purchased Reaction Biology (assay service)
Description: as §1

350 wild-type kinases [14] = target: T14, 350 wild-type kinases (Homo sapiens, UniProt Q9HCP0); settings: kinase CK1gamma1, ATP 0,1 µM, singlicate
T14 construct: purchased Reaction Biology (assay service)
T14 sequence (Q9HCP0 whole entry): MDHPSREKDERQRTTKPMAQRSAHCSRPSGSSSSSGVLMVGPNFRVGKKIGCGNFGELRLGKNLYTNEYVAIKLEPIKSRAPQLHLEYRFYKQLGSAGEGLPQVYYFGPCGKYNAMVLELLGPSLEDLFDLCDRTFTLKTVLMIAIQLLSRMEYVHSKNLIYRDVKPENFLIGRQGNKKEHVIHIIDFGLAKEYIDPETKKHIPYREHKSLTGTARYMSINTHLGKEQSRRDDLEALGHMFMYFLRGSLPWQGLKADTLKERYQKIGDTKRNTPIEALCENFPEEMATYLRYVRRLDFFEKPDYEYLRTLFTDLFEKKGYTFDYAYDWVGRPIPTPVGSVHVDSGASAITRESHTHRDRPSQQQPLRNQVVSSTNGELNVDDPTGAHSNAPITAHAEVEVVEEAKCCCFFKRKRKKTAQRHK
Description: as §1

350 wild-type kinases [15] = target: T15, 350 wild-type kinases (Homo sapiens, UniProt Q8N5S9); settings: kinase CAMKK1, ATP 3 µM, singlicate
T15 construct: purchased Reaction Biology (assay service)
Description: as §1

350 wild-type kinases [16] = target: T16, 350 wild-type kinases (Homo sapiens, UniProt Q9UIK4); settings: kinase DAPK2, ATP 0,1 µM, singlicate
T16 construct: purchased Reaction Biology (assay service)
T16 sequence (Q9UIK4 whole entry): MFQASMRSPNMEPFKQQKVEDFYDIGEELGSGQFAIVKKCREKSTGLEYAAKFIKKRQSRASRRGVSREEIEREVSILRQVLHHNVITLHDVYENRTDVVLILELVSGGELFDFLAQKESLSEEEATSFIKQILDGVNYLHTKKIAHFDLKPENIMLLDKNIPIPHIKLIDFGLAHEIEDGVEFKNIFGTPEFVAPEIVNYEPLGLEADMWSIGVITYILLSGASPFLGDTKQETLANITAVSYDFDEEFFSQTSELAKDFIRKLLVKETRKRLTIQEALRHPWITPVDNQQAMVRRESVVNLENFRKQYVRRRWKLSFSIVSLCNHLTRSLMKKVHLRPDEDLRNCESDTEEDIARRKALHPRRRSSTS
Description: as §1

350 wild-type kinases [17] = target: T17, 350 wild-type kinases (Homo sapiens, UniProt Q8TDC3); settings: kinase BRSK1, ATP 1 µM, singlicate
T17 construct: purchased Reaction Biology (assay service)
T17 sequence (Q8TDC3 whole entry): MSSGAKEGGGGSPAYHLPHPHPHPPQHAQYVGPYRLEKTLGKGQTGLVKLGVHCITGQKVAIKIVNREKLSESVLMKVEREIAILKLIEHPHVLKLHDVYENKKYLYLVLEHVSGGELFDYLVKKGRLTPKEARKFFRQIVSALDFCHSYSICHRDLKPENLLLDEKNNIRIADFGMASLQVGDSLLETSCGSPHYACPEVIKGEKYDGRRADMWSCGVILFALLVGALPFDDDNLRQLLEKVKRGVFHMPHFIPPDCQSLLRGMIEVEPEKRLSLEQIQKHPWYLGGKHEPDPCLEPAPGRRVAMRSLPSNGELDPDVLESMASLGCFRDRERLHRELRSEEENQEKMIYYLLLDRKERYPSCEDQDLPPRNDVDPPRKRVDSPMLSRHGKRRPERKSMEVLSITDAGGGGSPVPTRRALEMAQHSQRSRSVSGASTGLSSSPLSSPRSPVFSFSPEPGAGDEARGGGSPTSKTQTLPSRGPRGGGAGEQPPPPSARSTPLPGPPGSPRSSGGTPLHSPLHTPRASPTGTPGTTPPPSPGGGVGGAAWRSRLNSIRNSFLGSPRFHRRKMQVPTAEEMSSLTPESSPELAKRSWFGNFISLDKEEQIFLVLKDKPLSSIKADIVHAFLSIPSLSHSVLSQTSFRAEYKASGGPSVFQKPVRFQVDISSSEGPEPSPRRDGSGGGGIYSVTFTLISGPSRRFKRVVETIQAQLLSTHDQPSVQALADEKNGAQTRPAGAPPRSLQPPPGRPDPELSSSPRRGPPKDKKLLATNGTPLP
Description: as §1

350 wild-type kinases [18] = target: T18, 350 wild-type kinases (Homo sapiens, UniProt Q06187); settings: kinase BTK, ATP 3 µM, singlicate
T18 construct: purchased Reaction Biology (assay service)
T18 sequence (Q06187 whole entry): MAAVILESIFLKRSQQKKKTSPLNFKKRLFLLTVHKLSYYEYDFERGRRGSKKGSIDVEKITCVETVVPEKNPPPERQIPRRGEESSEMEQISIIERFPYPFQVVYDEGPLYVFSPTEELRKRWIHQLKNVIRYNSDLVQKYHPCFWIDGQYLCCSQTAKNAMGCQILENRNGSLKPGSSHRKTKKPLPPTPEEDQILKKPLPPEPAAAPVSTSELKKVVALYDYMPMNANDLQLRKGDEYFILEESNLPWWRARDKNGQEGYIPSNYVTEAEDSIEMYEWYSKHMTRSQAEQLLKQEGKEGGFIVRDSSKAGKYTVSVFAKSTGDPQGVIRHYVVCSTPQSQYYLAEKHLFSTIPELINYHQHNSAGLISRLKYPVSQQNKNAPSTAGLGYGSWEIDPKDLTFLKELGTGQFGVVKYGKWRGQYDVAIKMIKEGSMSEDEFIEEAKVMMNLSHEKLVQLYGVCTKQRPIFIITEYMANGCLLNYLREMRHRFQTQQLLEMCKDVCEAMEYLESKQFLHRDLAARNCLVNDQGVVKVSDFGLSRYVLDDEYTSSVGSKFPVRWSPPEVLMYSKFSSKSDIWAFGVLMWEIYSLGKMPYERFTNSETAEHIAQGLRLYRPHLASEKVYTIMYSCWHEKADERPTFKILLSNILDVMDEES
Description: as §1

350 wild-type kinases [19] = target: T19, 350 wild-type kinases (Homo sapiens, UniProt P41240); settings: kinase CSK, ATP 1 µM, singlicate
T19 construct: purchased Reaction Biology (assay service)
Description: as §1

350 wild-type kinases [20] = target: T20, 350 wild-type kinases (Homo sapiens, UniProt Q9UM73); settings: kinase ALK, ATP 0,3 µM, singlicate
T20 construct: purchased Reaction Biology (assay service)
Description: as §1

350 wild-type kinases [21] = target: T21, 350 wild-type kinases (Homo sapiens, UniProt Q00534); settings: singlicate; for Residual activity (% of control), CDK6/CycD1: kinase CDK6/CycD1, ATP 3 µM; for Residual activity (% of control), CDK6/CycD2: kinase CDK6/CycD2, ATP 10 µM; for Residual activity (% of control), CDK6/CycD3: kinase CDK6/CycD3, ATP 30 µM
T21 construct: purchased Reaction Biology (assay service)
T21 sequence (Q00534 whole entry): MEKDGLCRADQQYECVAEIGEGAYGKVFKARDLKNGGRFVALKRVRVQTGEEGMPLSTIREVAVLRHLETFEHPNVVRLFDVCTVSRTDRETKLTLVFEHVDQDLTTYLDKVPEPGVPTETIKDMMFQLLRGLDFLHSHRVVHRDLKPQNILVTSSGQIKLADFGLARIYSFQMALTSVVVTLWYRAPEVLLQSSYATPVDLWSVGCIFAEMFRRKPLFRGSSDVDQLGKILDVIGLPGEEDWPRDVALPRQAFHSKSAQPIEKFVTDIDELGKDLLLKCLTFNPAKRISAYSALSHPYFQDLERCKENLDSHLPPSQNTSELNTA
Description: as §1

350 wild-type kinases [22] = target: T22, 350 wild-type kinases (Homo sapiens, UniProt Q09013); settings: kinase DMPK, ATP 0,1 µM, singlicate
T22 construct: purchased Reaction Biology (assay service)
Description: as §1

350 wild-type kinases [23] = target: T23, 350 wild-type kinases (Homo sapiens, UniProt P30530); settings: kinase AXL, ATP 0,3 µM, singlicate
T23 construct: purchased Reaction Biology (assay service)
T23 sequence (P30530 26-894): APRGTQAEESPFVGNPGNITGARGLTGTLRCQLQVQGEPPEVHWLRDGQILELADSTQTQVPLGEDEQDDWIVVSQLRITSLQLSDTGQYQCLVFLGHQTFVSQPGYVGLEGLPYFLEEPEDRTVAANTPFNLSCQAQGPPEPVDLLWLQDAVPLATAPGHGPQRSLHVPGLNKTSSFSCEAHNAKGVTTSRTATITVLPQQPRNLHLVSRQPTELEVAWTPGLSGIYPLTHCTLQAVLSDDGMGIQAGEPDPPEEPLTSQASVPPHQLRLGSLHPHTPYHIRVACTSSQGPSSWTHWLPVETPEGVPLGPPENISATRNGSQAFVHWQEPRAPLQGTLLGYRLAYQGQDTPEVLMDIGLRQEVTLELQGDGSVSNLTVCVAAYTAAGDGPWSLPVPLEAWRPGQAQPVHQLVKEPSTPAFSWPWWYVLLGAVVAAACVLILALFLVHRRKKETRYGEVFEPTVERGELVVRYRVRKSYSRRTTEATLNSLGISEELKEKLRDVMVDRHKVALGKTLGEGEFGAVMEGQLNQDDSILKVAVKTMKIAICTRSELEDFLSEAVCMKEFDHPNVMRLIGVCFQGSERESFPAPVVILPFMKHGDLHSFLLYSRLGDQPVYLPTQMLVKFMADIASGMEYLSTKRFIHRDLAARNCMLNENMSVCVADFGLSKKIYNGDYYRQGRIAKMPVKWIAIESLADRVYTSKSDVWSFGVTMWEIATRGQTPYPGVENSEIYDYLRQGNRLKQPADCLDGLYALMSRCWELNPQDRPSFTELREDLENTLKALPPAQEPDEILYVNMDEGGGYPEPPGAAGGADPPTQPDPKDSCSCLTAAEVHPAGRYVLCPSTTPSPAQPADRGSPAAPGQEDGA
Description: as §1

T1 sequence (P36894 24-532): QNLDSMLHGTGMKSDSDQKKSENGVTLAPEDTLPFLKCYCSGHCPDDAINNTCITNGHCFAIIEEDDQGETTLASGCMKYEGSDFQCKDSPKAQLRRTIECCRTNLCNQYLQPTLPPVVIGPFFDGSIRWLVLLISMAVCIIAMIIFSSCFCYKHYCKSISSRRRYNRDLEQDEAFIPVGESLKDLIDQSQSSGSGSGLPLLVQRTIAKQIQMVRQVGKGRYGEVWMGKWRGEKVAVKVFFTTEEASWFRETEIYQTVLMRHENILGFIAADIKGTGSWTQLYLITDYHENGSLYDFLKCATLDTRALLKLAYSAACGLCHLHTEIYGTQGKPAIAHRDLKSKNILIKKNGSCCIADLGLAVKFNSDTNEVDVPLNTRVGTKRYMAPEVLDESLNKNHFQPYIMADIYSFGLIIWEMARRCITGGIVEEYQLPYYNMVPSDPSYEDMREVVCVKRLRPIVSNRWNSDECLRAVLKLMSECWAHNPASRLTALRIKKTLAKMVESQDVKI

CCSc1nc(NC)c2c(-c3cccc(NC(=O)Nc4cc(C(C)(C)C)nn4-c4ccc(C)cc4)c3)c[nH]c2n1 [Compound 32]
Residual activity (% of control), BMPR1A (350 wild-type kinases [1]; Assay Conc. 1.0E-05 M): 85 % of control | Residual activity (% of control), BMPR1A (350 wild-type kinases [1]; Assay Conc. 1.0E-06 M): 97 % of control | Residual activity (% of control), CDK5/p25NCK (350 wild-type kinases [2]; Assay Conc. 1.0E-05 M): 66 % of control | Residual activity (% of control), CDK5/p25NCK (350 wild-type kinases [2]; Assay Conc. 1.0E-06 M): 95 % of control | Residual activity (% of control), CDK5/p35NCK (350 wild-type kinases [2]; Assay Conc. 1.0E-05 M): 76 % of control | Residual activity (% of control), CDK5/p35NCK (350 wild-type kinases [2]; Assay Conc. 1.0E-06 M): 94 % of control | Residual activity (% of control), CDK12/CycK (350 wild-type kinases [3]; Assay Conc. 1.0E-05 M): 87 % of control | Residual activity (% of control), CDK12/CycK (350 wild-type kinases [3]; Assay Conc. 1.0E-06 M): 99 % of control | Residual activity (% of control), ACVR2A (350 wild-type kinases [4]; Assay Conc. 1.0E-05 M): 92 % of control | Residual activity (% of control), ACVR2A (350 wild-type kinases [4]; Assay Conc. 1.0E-06 M): 102 % of control | Residual activity (% of control), ARK5 (350 wild-type kinases [5]; Assay Conc. 1.0E-05 M): 99 % of control | Residual activity (% of control), ARK5 (350 wild-type kinases [5]; Assay Conc. 1.0E-06 M): 105 % of control | Residual activity (% of control), ACK1 (350 wild-type kinases [6]; Assay Conc. 1.0E-05 M): 74 % of control | Residual activity (% of control), ACK1 (350 wild-type kinases [6]; Assay Conc. 1.0E-06 M): 90 % of control | Residual activity (% of control), CK2alpha1 (350 wild-type kinases [7]; Assay Conc. 1.0E-05 M): 82 % of control | Residual activity (% of control), CK2alpha1 (350 wild-type kinases [7]; Assay Conc. 1.0E-06 M): 102 % of control | Residual activity (% of control), CAMK2G (350 wild-type kinases [8]; Assay Conc. 1.0E-05 M): 122 % of control | Residual activity (% of control), CAMK2G (350 wild-type kinases [8]; Assay Conc. 1.0E-06 M): 106 % of control | Residual activity (% of control), CDK19/CycC (350 wild-type kinases [9]; Assay Conc. 1.0E-05 M): 54 % of control | Residual activity (% of control), CDK19/CycC (350 wild-type kinases [9]; Assay Conc. 1.0E-06 M): 97 % of control | Residual activity (% of control), AuroraB (350 wild-type kinases [10]; Assay Conc. 1.0E-05 M): 74 % of control | Residual activity (% of control), AuroraB (350 wild-type kinases [10]; Assay Conc. 1.0E-06 M): 107 % of control | Residual activity (% of control), DDR2 (350 wild-type kinases [11]; Assay Conc. 1.0E-05 M): 20 % of control | Residual activity (% of control), DDR2 (350 wild-type kinases [11]; Assay Conc. 1.0E-06 M): 79 % of control | Residual activity (% of control), ACVR2B (350 wild-type kinases [12]; Assay Conc. 1.0E-05 M): 98 % of control | Residual activity (% of control), ACVR2B (350 wild-type kinases [12]; Assay Conc. 1.0E-06 M): 123 % of control | Residual activity (% of control), CHK2 (350 wild-type kinases [13]; Assay Conc. 1.0E-05 M): 64 % of control | Residual activity (% of control), CHK2 (350 wild-type kinases [13]; Assay Conc. 1.0E-06 M): 90 % of control | Residual activity (% of control), CK1gamma1 (350 wild-type kinases [14]; Assay Conc. 1.0E-05 M): 97 % of control | Residual activity (% of control), CK1gamma1 (350 wild-type kinases [14]; Assay Conc. 1.0E-06 M): 92 % of control | Residual activity (% of control), CAMKK1 (350 wild-type kinases [15]; Assay Conc. 1.0E-05 M): 122 % of control | Residual activity (% of control), CAMKK1 (350 wild-type kinases [15]; Assay Conc. 1.0E-06 M): 114 % of control | Residual activity (% of control), DAPK2 (350 wild-type kinases [16]; Assay Conc. 1.0E-05 M): 88 % of control | Residual activity (% of control), DAPK2 (350 wild-type kinases [16]; Assay Conc. 1.0E-06 M): 93 % of control | Residual activity (% of control), BRSK1 (350 wild-type kinases [17]; Assay Conc. 1.0E-05 M): 89 % of control | Residual activity (% of control), BRSK1 (350 wild-type kinases [17]; Assay Conc. 1.0E-06 M): 101 % of control | Residual activity (% of control), BTK (350 wild-type kinases [18]; Assay Conc. 1.0E-05 M): 37 % of control | Residual activity (% of control), BTK (350 wild-type kinases [18]; Assay Conc. 1.0E-06 M): 80 % of control | Residual activity (% of control), CSK (350 wild-type kinases [19]; Assay Conc. 1.0E-05 M): 69 % of control | Residual activity (% of control), CSK (350 wild-type kinases [19]; Assay Conc. 1.0E-06 M): 97 % of control | Residual activity (% of control), ALK (350 wild-type kinases [20]; Assay Conc. 1.0E-05 M): 23 % of control | Residual activity (% of control), ALK (350 wild-type kinases [20]; Assay Conc. 1.0E-06 M): 64 % of control | Residual activity (% of control), CDK6/CycD1 (350 wild-type kinases [21]; Assay Conc. 1.0E-05 M): 74 % of control | Residual activity (% of control), CDK6/CycD1 (350 wild-type kinases [21]; Assay Conc. 1.0E-06 M): 127 % of control | Residual activity (% of control), CDK6/CycD2 (350 wild-type kinases [21]; Assay Conc. 1.0E-05 M): 80 % of control | Residual activity (% of control), CDK6/CycD2 (350 wild-type kinases [21]; Assay Conc. 1.0E-06 M): 109 % of control | Residual activity (% of control), CDK6/CycD3 (350 wild-type kinases [21]; Assay Conc. 1.0E-05 M): 73 % of control | Residual activity (% of control), CDK6/CycD3 (350 wild-type kinases [21]; Assay Conc. 1.0E-06 M): 94 % of control | Residual activity (% of control), DMPK (350 wild-type kinases [22]; Assay Conc. 1.0E-05 M): 69 % of control | Residual activity (% of control), DMPK (350 wild-type kinases [22]; Assay Conc. 1.0E-06 M): 106 % of control | Residual activity (% of control), AXL (350 wild-type kinases [23]; Assay Conc. 1.0E-05 M): 59 % of control | Residual activity (% of control), AXL (350 wild-type kinases [23]; Assay Conc. 1.0E-06 M): 94 % of control
